Data from patent US7423157B2, “Substituted benzimidazoles and their use for inducing apoptosis” (Basilea Pharmaceutica AG, priority 2004, dated 2008).

Key:
[1] = test system: HeLa; assay: Hoechst 33342 nuclear staining, HeLa; assay type: cell-based, human; conditions: 48 h
Protocol: (§1) This assay is performed in 96 well tissue culture plates. Appropriate number of cells (adherent cells: 3-5*10^3, suspension cells: 8-10*10^3) are being seeded out in 80 μl complete medium. Adherent cells are incubated for 24 h for proper spreading out before addition of test compounds while suspension cells are immediately treated with test compounds after seeding out. The test compounds are added in 20 μl complete medium containing max 5% DMSO. The final compound concentrations in the assays are 10 μM, 3 μM, 1 μM and 0.3 μM, respectively. […] The assay plates are then further incubated for 30 minutes and subsequently analyzed with a standard inverted fluorescence microscope.
(§2) The readout allows the determination of the fraction of apoptotic nuclei as well as other morphological criteria specific for apoptosis as a function of the treatment. The following scores are used: 0 relating to no activity, 1 relating to weak activity comprising less than 50% of the cells and score 2 relating to strong activity comprising more than 50% of the cells.

[2] = test system: Jurkat; assay: MTS proliferation assay, Jurkat; assay type: cell-based, human; conditions: 72 h incubation
Protocol: (§3) The assay is performed in 96 well tissue culture plates. The cells (range: 1.5*10^3-10^4) are seeded out in 80 μl complete medium 24 h prior to compound treatment. The test compounds are added in 20 μl complete medium containing max 5% DMSO. The final compound concentrations in the assays are 10 μM, 3 μM, 1 μM and 0.3 μM, respectively. The assay plates are incubated for 72 h at culture conditions. The MTS reagent is prepared according to the manufacturer's protocol (Promega G1111). 20 μl MTS reagent are added to each well, the assay plates are quickly spun and incubated for another 3 h at culture conditions. Subsequently, the plates are shortly shaked and absorption measured with a microplate-reader at 492 nm.

[3] = test system: H460; assay: Hoechst 33342 nuclear staining, H460; assay type: cell-based, human; conditions: H460, 48 h
Protocol: as §1, §2

[4] = test system: Jily; assay: Hoechst 33342 nuclear staining, Jily; assay type: cell-based; conditions: 48 h
Protocol: as §1, §2

[5] = test system: MRC5; assay: Hoechst 33342 nuclear staining, MRC5; assay type: cell-based; parameters: key: 0 = no activity, 1 = weak (<50% of cells), 2 = strong (>50% of cells); conditions: MRC5, 48 h
Protocol: as §1, §2

[6] = test system: Jurkat; assay: Hoechst 33342 nuclear staining, Jurkat; assay type: cell-based, human; conditions: 48 h
Protocol: as §1, §2

[7] = test system: HeLa; assay: MTS proliferation assay, HeLa; assay type: cell-based, human; conditions: 72 h incubation
Protocol: as §3

[8] = test system: PBLs; assay: Hoechst 33342 nuclear staining, PBLs; assay type: cell-based; parameters: key: 0 = no activity, 1 = weak (<50% of cells), 2 = strong (>50% of cells); conditions: 48 h
Protocol: as §1, §2

Row | SMILES | Hoechst 33342 nuclear staining score ([1]; conc. 0.3 (μM)) | Hoechst 33342 nuclear staining score ([1]; conc. 1 (μM)) | Hoechst 33342 nuclear staining score ([1]; conc. 3 (μM)) | Hoechst 33342 nuclear staining score ([1]; conc. 10 (μM)) | Hoechst 33342 nuclear staining score ([3]; conc. 0.3 (μM)) | Hoechst 33342 nuclear staining score ([3]; conc. 1 (μM)) | Hoechst 33342 nuclear staining score ([3]; conc. 3 (μM)) | Hoechst 33342 nuclear staining score ([3]; conc. 10 (μM)) | Hoechst 33342 nuclear staining score ([4]; conc. 0.3 (μM)) | Hoechst 33342 nuclear staining score ([4]; conc. 1 (μM)) | Hoechst 33342 nuclear staining score ([4]; conc. 3 (μM)) | Hoechst 33342 nuclear staining score ([4]; conc. 10 (μM)) | Hoechst 33342 nuclear staining score ([5]; conc. 0.3 (μM)) | Hoechst 33342 nuclear staining score ([5]; conc. 1 (μM)) | Hoechst 33342 nuclear staining score ([5]; conc. 3 (μM)) | Hoechst 33342 nuclear staining score ([5]; conc. 10 (μM)) | Hoechst 33342 nuclear staining score ([6]; conc. 0.3 (μM)) | Hoechst 33342 nuclear staining score ([6]; conc. 1 (μM)) | Hoechst 33342 nuclear staining score ([6]; conc. 3 (μM)) | Hoechst 33342 nuclear staining score ([6]; conc. 10 (μM)) | also measured
1 | Cc1ccc(C(=O)Cn2c(-n3ncnc3N)nc3ccccc32)cc1C [Example 1, 3-Amino-2-(1-[3,4-dimethylphenylcarbonylmethyl]benzimidazol-2-yl)-1,2,4-triazole] | 2 (score 2 relating to strong activity comprising more than 50% of the cells) | 2 (score 2 relating to strong activity comprising more than 50% of the cells) | 2 (score 2 relating to strong activity comprising more than 50% of the cells) | 2 (score 2 relating to strong activity comprising more than 50% of the cells) | 2 (score 2 relating to strong activity comprising more than 50% of the cells) | 2 (score 2 relating to strong activity comprising more than 50% of the cells) | 2 (score 2 relating to strong activity comprising more than 50% of the cells) | 2 (score 2 relating to strong activity comprising more than 50% of the cells) | 2 (score 2 relating to strong activity comprising more than 50% of the cells) | 2 (score 2 relating to strong activity comprising more than 50% of the cells) | 2 (score 2 relating to strong activity comprising more than 50% of the cells) | 2 (score 2 relating to strong activity comprising more than 50% of the cells) | 1 (1 relating to weak activity comprising less than 50% of the cells) | 2 (score 2 relating to strong activity comprising more than 50% of the cells) | 2 (score 2 relating to strong activity comprising more than 50% of the cells) | 2 (score 2 relating to strong activity comprising more than 50% of the cells) | 2 (score 2 relating to strong activity comprising more than 50% of the cells) | 2 (score 2 relating to strong activity comprising more than 50% of the cells) | 2 (score 2 relating to strong activity comprising more than 50% of the cells) | 2 (score 2 relating to strong activity comprising more than 50% of the cells) | IC50 ([2]; Homo sapiens): < 100 nM; IC50 ([7]; Homo sapiens): < 100 nM; Hoechst 33342 nuclear staining score ([8]; conc. 0.3 (μM)): 0; Hoechst 33342 nuclear staining score ([8]; conc. 1 (μM)): 0; Hoechst 33342 nuclear staining score ([8]; conc. 3 (μM)): 0; Hoechst 33342 nuclear staining score ([8]; conc. 10 (μM)): 0
2 | COc1cccc(/C=C/C(=O)Cn2c(-n3ncnc3N)nc3ccccc32)c1 [Example 9] | 0 | 0 | 0 | 2 (score 2 relating to strong activity comprising more than 50% of the cells) | 0 | 0 | 0 | 2 (score 2 relating to strong activity comprising more than 50% of the cells) | 0 | 0 | 0 | 2 (score 2 relating to strong activity comprising more than 50% of the cells) | 0 | 0 | 0 | 0 | 0 | 0 | 0 | 2 (score 2 relating to strong activity comprising more than 50% of the cells) | IC50 [2]: > 1000 nM; IC50 [7]: > 1000 nM; Hoechst 33342 nuclear staining score ([8]; conc. 0.3 (μM)): 0; Hoechst 33342 nuclear staining score ([8]; conc. 1 (μM)): 0; Hoechst 33342 nuclear staining score ([8]; conc. 3 (μM)): 0; Hoechst 33342 nuclear staining score ([8]; conc. 10 (μM)): 2 (score 2 relating to strong activity comprising more than 50% of the cells)
